According to PubChem BioAssay (NCI):
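Assay format: 96-well plates, 48-hour exposure. GI50 = concentration required for 50% inhibition of growth. TGI denotes the concentration required for complete inhibition of growth.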 Where a SMILES comes first, the peptide text is derived from it.

What was measured:
Experiment in all cases: inhibition of tumour cell growth, NCI panel, 48 h
NCI-H23 lung = test system: NCI-H23 lung
LOX IMVI melanoma = test system: LOX IMVI melanoma
SN12C renal = test system: SN12C renal
UO-31 renal = test system: UO-31 renal
SNB-19 CNS = test system: SNB-19 CNS
CAKI-1 renal = test system: CAKI-1 renal
HL-60(TB) leukemia = test system: HL-60(TB) leukemia
K-562 leukemia = test system: K-562 leukemia
HOP-92 NSCLC = test system: HOP-92 NSCLC
MDA-MB-231 breast = test system: MDA-MB-231 breast

Structure (SMILES) | TGI (NCI-H23 lung) [µM] | TGI (LOX IMVI melanoma) [µM] | TGI (SN12C renal) [µM] | TGI (UO-31 renal) [µM] | TGI (SNB-19 CNS) [µM] | TGI (CAKI-1 renal) [µM] | TGI (HL-60(TB) leukemia) [µM] | TGI (K-562 leukemia) [µM] | TGI (HOP-92 NSCLC) [µM] | GI50 (NCI-H23 lung) [µM] | GI50 (LOX IMVI melanoma) [µM] | GI50 (SN12C renal) [µM] | GI50 (UO-31 renal) [µM] | GI50 (SNB-19 CNS) [µM] | GI50 (CAKI-1 renal) [µM] | GI50 (MDA-MB-231 breast) [µM] | TGI (MDA-MB-231 breast) [µM] | GI50 (HL-60(TB) leukemia) [µM] | GI50 (K-562 leukemia) [µM] | GI50 (HOP-92 NSCLC) [µM]
CCOC(=N)CC(=O)Nc1cccc(Cl)c1 | > 100 | > 100 | > 100 | > 100 | > 100 | > 100 | > 100 | > 100 | – | – | – | – | – | – | – | – | – | – | – | –
CNS(=O)(=O)NN(C)S(=O)(=O)c1ccc2ccccc2c1 | > 100 | > 100 | > 100 | > 100 | – | > 100 | > 100 | > 100 | – | – | – | – | – | – | – | – | – | – | – | –
Cc1cccc(N2C(=O)C(=O)C(c3nc4ccccc4s3)/C(=N/NC(=S)NN)C2=O)c1C (stereo unspecified) | > 100 | > 100 | > 100 | > 100 | > 100 | > 100 | – | > 100 | > 100 | – | – | – | – | – | – | – | – | – | – | –
COc1ccc2c(c1)CC1c3c(ccc(OC)c3O)CC2N1C (stereo unspecified) | > 100 | 38.9 | > 100 | > 100 | > 100 | > 100 | 40.3 | 58.9 | 70.9 | – | – | – | – | – | – | – | – | – | – | –
O=c1c(NO)c([N+](=O)[O-])cnn1-c1ccccc1 | 13.2 | 3.66 | 7.59 | 12.9 | 26.1 | 11.2 | 3.14 | 1.86 | 13.9 | – | – | – | – | – | – | – | – | – | – | –
CCCCNC(=O)Oc1ccc(/C(=C(/C)Cc2ccc(OC)cc2)c2ccc(OCCN3CCCC3)cc2)cc1 | 5.67 | 3.2 | 3.27 | 3.22 | 11.4 | 3.5 | 3.82 | 5.13 | – | 2.26 | 1.67 | 1.77 | 1.65 | 3.47 | 1.63 | 1.87 | 3.49 | 1.64 | 1.57 | –
COc1ccc2c(c1)[n+]([O-])c(-c1ccc(C)cc1)c(N)[n+]2[O-] | 48.3 | – | > 100 | > 100 | > 100 | > 100 | > 100 | > 100 | > 100 | – | – | – | – | – | – | – | – | – | – | –
CCCCCCCCCCCCCCCC(=O)OCC1OC(OC)C2NP(=O)(N(CCCl)CCCl)OC1C2O (stereo unspecified) | 6.76 | 6.58 | 24.8 | 35.1 | 65.6 | 10.5 | 4.48 | 24 | 5.51 | – | – | – | – | – | – | – | – | – | – | –
COc1ccc(-c2cc(-c3cc(Cl)cc(Br)c3O)[nH]c(=O)n2)cc1 | 29.4 | 33.2 | 32.3 | 34.7 | 57.2 | 37.2 | 48.5 | 41.7 | 34.7 | – | – | – | – | – | – | – | – | – | – | –
Cc1cc(N2CCCC2)nc(NCc2cc(Nc3ccnc4cc(Cl)ccc34)ccc2F)n1 | 3.63 | 2.48 | – | 2.66 | – | 2.86 | 4.49 | – | 2.57 | 1.3 | 1.12 | – | 1.21 | – | 1.38 | – | – | 1.99 | – | 1.19
CCOC(=O)C1=C(C)N(NC(N)=O)C(C)(O)C12CCOC2=O (stereo unspecified) | – | > 100 | > 100 | > 100 | > 100 | > 100 | > 100 | > 100 | – | – | – | – | – | – | – | – | – | – | – | –
O=[N+]([O-])c1ccc(/C=C/c2csnn2)cc1 | > 100 | > 100 | > 100 | > 100 | > 100 | > 100 | > 100 | > 100 | > 100 | – | – | – | – | – | – | – | – | – | – | –
Cc1ccc(NC(=S)SCCC(=O)O)cc1 | > 100 | > 100 | > 100 | > 100 | > 100 | > 100 | > 100 | > 100 | – | – | – | – | – | – | – | – | – | – | – | –
CCC(C)C1NC(=O)C2CCCN2C(=O)CNC(=O)C(C)NC(=O)C(Cc2ccccc2)NC(=O)C(C(C)C)NC1=O (stereo unspecified) (cyclo(GPIVFA); configuration not given here) | > 100 | > 100 | > 100 | > 100 | > 100 | > 100 | – | – | > 100 | – | – | – | – | – | – | – | – | – | – | –
Clc1ccc2nc(-c3ccccc3)nc(Cl)c2c1 | > 100 | – | > 100 | > 100 | > 100 | 54.9 | 31.1 | > 100 | 50.3 | – | – | – | – | – | – | – | – | – | – | –
CC1=C(Cl)C=CP(=O)(OC(C)C)C1 (stereo unspecified) | > 100 | – | > 100 | > 100 | – | – | > 100 | > 100 | > 100 | – | – | – | – | – | – | – | – | – | – | –

Structure (SMILES) | TGI (NCI-H23 lung) [µM] | TGI (LOX IMVI melanoma) [µM] | TGI (SN12C renal) [µM] | TGI (UO-31 renal) [µM] | TGI (SNB-19 CNS) [µM] | TGI (CAKI-1 renal) [µM] | TGI (HL-60(TB) leukemia) [µM] | TGI (K-562 leukemia) [µM] | TGI (HOP-92 NSCLC) [µM] | GI50 (NCI-H23 lung) [µM] | GI50 (LOX IMVI melanoma) [µM] | GI50 (SN12C renal) [µM] | GI50 (UO-31 renal) [µM] | GI50 (SNB-19 CNS) [µM] | GI50 (CAKI-1 renal) [µM] | GI50 (MDA-MB-231 breast) [µM] | TGI (MDA-MB-231 breast) [µM] | GI50 (HL-60(TB) leukemia) [µM] | GI50 (K-562 leukemia) [µM] | GI50 (HOP-92 NSCLC) [µM]
O=[N+]([O-])c1cc(Cl)ccc1OCc1ccccc1 | 96.5 | > 100 | > 100 | – | – | – | > 100 | > 100 | 92.5 | – | – | – | – | – | – | – | – | – | – | –
CCCCc1n(Cc2ccc3ccccc3c2)cc[n+]1Cc1ccc2ccccc2c1 | 2.31 | – | 2.43 | 2.96 | – | – | – | – | – | 0.793 | – | 1.09 | 1.45 | – | – | 1.31 | 2.77 | – | – | –
COC(=O)C1C=NNC1C(=O)OC (stereo unspecified) | > 100 | > 100 | > 100 | > 100 | > 100 | > 100 | > 100 | > 100 | – | – | – | – | – | – | – | – | – | – | – | –
CCN(CC)C(=O)N1CCN(C=S)CC1 | > 100 | > 100 | > 100 | > 100 | > 100 | – | > 100 | > 100 | – | – | – | – | – | – | – | – | – | – | – | –
C=C1C2CC(OC(C)=O)C3(C)C(c4ccoc4)OC(=O)[C@@H](O)[C@]13OC1C[C@H](OC(C)=O)C(C)(C)[C@H](CC(=O)OC)[C@]12C (stereo partly specified) | > 100 | > 100 | > 100 | > 100 | > 100 | – | > 100 | > 100 | > 100 | – | – | – | – | – | – | – | – | – | – | –
O=[N+]([O-])c1ccccc1C=NC12CC3CC(CC(C3)C1)C2 | > 100 | > 100 | > 100 | > 100 | > 100 | > 100 | 57.1 | > 100 | > 100 | – | – | – | – | – | – | – | – | – | – | –
COC(=O)N/N=C(/CCC(=O)Nc1ccc(C)c(C)c1)CC(=O)C(C)(C)C | > 100 | > 100 | > 100 | > 100 | > 100 | > 100 | > 100 | > 100 | – | – | – | – | – | – | – | – | – | – | – | –
Cc1ccc(C2=C(c3ccc(C)cc3)C3(c4ccc(C)cc4)C4C(=O)c5ccccc5C(=O)C4C2(c2ccc(C)cc2)S3=O)cc1 (stereo unspecified) | > 100 | > 100 | > 100 | > 100 | > 100 | > 100 | – | > 100 | – | > 100 | > 100 | > 100 | > 100 | 63.7 | > 100 | 60 | > 100 | – | > 100 | –
O=C1Nc2ccccc2/C1=C\c1nc(C2CCN(S(=O)(=O)c3ccc(F)cc3)CC2)n2ccccc12 | 68.4 | > 100 | > 100 | – | 33.3 | > 100 | > 100 | > 100 | – | 4.29 | 2.58 | 3.05 | – | 3.99 | 1.73 | 2.9 | 60.8 | > 100 | > 100 | –
CC1C[C@]2(C[C@@H](C)C(=O)O2)O[C@@H]2CC3(C)[C@@H]4CCC5C(C)(C)OC(=O)C[C@H]6OO[C@]4(CC[C@]3(C)C12)CC56O (stereo partly specified) | > 100 | > 100 | > 100 | > 100 | > 100 | – | > 100 | – | – | – | – | – | – | – | – | – | – | – | – | –
CCOC(=O)[C@H]1Nc2ccc([N+](=O)[O-])cc2C2c3ccccc3CC21 (stereo partly specified) | 73.6 | 33.2 | 43.2 | 44 | > 100 | > 100 | – | 52.2 | – | – | – | – | – | – | – | – | – | – | – | –
CC(C)CC(Nc1c(O)ccc2ccccc12)C(=O)O (stereo unspecified) | > 100 | > 100 | > 100 | > 100 | > 100 | 47.4 | > 100 | > 100 | – | – | – | – | – | – | – | – | > 100 | – | – | –
CC(=O)[CH-]C(=O)c1ccccc1.CC(=O)[CH-]C(=O)c1ccccc1.Cl.[O-]c1ccccn1.[O-]c1ccccn1.[Ti+4] | – | > 100 | > 100 | > 100 | > 100 | > 100 | > 100 | > 100 | – | – | > 100 | > 100 | > 100 | > 100 | > 100 | – | – | > 100 | > 100 | –
CC12CO[C@@](C)(CC(S(=O)(=O)c3ccccc3)C1)O2 (stereo partly specified) | > 100 | – | > 100 | > 100 | > 100 | – | > 100 | > 100 | > 100 | – | – | – | – | – | – | – | – | – | – | –
O=S1(=O)CCCS(=O)(=O)C(c2ccccc2)=C1c1ccccc1 | > 100 | > 100 | > 100 | > 100 | – | > 100 | 44.6 | > 100 | 85.3 | – | – | – | – | – | – | – | – | – | – | –
Cc1ccc(-c2cc(=O)c3cc(C)c(C)c(C(=O)O)c3o2)cc1N | > 100 | > 100 | > 100 | > 100 | > 100 | > 100 | – | > 100 | – | – | – | – | – | – | – | – | – | – | – | –
